Tests used:
[1] = tested on: A2058 melanoma cells; assay: Apoptosis assay, Vitabright-48 thiol staining, NucleoCounter NC-250 image cytometer; format: cell-based, human; conditions: 10^−5 M, 24 h, NucleoCounter NC-250, average of two parallels ± S.D., control 8.7 ± 0.72
Procedure: The pro-apoptotic effects of conjugates and Dau at 10^−5 M concentration was studied after 24 h incubation by flow cytometry using FITC-annexin V (Sony Biotechnology, Weybridge, UK) and a novel image cytometer (NucleoCounter® NC-250^TM, ChemoMetec A/S, Lillerød, Denmark) using Vitabright-48™ (ChemoMetec A/S, Lillerød, Denmark), a cell permeable dye that reacts with thiol groups to form a fluorescent product. […]
normalizing the viability of conjugate-treated cells with that of the control cells, and these indices of groups pretreated with inhibitors or DMSO were statistically compared.
The apoptotic effect of conjugates and Dau was determined by a FACSCalibur flow cytometer (Becton Dickinson, San Jose, CA, USA) after staining with annexin V-FITC (Sony Biotechnology, Weybridge, UK) and NucleoCounter® NC-250™ cell analyzer (ChemoMetec A/S, Lillerød, Denmark) using Vitabright-48™, a cell-permeable fluorescent dye (ChemoMetec A/S, Lillerød, Denmark). […]
The cells were dissociated by a TrypLE reagent (Thermo Fisher Scientific, Waltham, MA, USA) composed of recombinant enzyme protecting the cell’s surface proteins and it was followed by a centrifugation and a washing step with PBS. […] Before labeling with annexin V-FITC, the cells were measured by a flow cytometer for controlling the autofluorescence of cells in case of each treatment group. […]

[2] = tested on: A2058 cells; assay: Cellular uptake by flow cytometry (Dau fluorescence); format: cell-based, human; conditions: 10^−5 M, 1, 4 and 6 h, FACSCalibur flow cytometry, mean of 2 parallels
Procedure: For investigation and comparison of the cellular uptake of the conjugates, A2058 cells were treated with the conjugates at 10^−5 M concentration for 1, 4 and 6 h. The fluorescence intensity of intracellular Dau built in the conjugates and as the free drug was determined by flow cytometry (FACSCalibur; Becton Dickinson, San Jose, CA, USA).
Figure 2 Cellular uptake of Dau–GnRH-III conjugates and free daunorubicin (Dau) by A2058 cells. Cellular uptake of the compounds was studied in 10^−5 M concentration. GeoMean (geometric mean channel) value is a dimensionless value and refers to the relative fluorescence intensity. Data shown are mean of 2 parallels ± SD. […]
To study the cellular uptake of conjugates and Dau as the reference drug, A2058 cells (2 × 10^5 cells/well) were seeded on 12-well plates and cultured for 24 h. […] The measurements of internalized conjugates are based on the fluorescence activity of Dau. For detecting the intracellular fluorescence intensity of the cells, which is proportional with the cellular uptake, FACSCalibur flow cytometer (Becton Dickinson, San Jose, CA, USA) was used by collecting 10000 cells for each measurement. […] CellQuest Pro program (Becton-Dickinson, San Jose, CA, USA) was used for the measurement and the evaluation of relative fluorescence intensity (geometric mean channel – GeoMean values). […]

COc1cccc2c1C(=O)c1c(O)c3c(c(O)c1C2=O)C[C@@](O)(C(C)=O)C[C@@H]3O[C@H]1C[C@H](N)[C@H](O)[C@H](C)O1 [daunorubicin]
the ratio of apoptotic cells, Vitabright-48™ [1]: 30.9 ± 0.68 %
Cellular uptake (GeoMean, relative intracellular fluorescence intensity normalized to control) [2]: high level of intracellular fluorescence

Source: PMC6178282, “Comparative cell biological study of in vitro antitumor and antimetastatic activity on melanoma cells of GnRH-III-containing conjugates modified with short-chain fatty acids” (Beilstein Journal of Organic Chemistry, 2018)
